Experimental data reported in patent US8697372B2, “Method for determining the binding of a given compound to a membrane receptor” (CIS Bio International, priority 2009, dated 2014).

Target: T1, Delta Opioid receptor implicated in the heterodimer with Dopamine D2 (Homo sapiens, UniProt P41143)
T1 construct: membrane-addressing signal peptide T8 (printed '18') (N); expressed in transfected cells; host or cells: HEK293T/17 cells, transient co-transfection
Type: binding
Settings: 3 nM red antagonist of the opioid receptor, D2 receptor labeled with HALO-Lumi4Tb, HEK293T cells, FIG. 10

T1 sequence (P41143 whole entry): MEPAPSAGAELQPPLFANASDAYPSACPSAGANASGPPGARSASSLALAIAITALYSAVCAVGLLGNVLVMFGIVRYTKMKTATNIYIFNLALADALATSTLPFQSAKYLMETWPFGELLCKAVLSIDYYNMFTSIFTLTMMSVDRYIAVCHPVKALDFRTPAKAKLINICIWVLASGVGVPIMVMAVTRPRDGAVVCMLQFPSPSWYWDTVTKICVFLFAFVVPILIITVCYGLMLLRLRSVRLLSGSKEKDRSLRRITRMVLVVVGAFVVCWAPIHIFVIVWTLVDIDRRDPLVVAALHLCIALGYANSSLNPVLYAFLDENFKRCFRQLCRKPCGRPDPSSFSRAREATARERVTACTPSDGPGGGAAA
T1 sequence (P14416 1-414 isoform P14416-2 partner): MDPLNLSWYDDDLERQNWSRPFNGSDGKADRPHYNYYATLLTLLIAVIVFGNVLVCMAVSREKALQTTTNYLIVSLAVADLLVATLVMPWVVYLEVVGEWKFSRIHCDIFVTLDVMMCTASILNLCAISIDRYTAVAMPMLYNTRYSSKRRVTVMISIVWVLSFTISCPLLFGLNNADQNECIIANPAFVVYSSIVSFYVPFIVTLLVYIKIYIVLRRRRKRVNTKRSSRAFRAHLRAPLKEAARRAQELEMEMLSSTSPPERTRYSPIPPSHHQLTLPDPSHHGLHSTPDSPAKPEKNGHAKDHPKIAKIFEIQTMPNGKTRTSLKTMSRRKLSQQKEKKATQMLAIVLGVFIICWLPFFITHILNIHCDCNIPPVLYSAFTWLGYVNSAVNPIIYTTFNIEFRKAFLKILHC

SMILES	Competition with the fluorescent reference ligand and binding to the heterodimers
Oc1ccc2c3c1O[C@H]1c4[nH]c5ccccc5c4C[C@@]4(O)[C@@H](C2)N(CC2CC2)CC[C@]314 [Naltrindole]	compete with the fluorescent reference ligand and bind to the heterodimers
C=CCN1C[C@H](C)N([C@@H](c2ccccc2)c2ccc(C(=O)N(CC)CC)cc2)C[C@H]1C [SNC-162]	compete with the fluorescent reference ligand and bind to the heterodimers
